# Measured values: ChEMBL document CHEMBL3351478 (Eur J Med Chem, 2014)
# The source made the active and inactive calls. The calls are words filed in the database; no cut-off is given here.
# Key:
# Leishmania donovani [1] = assay: Antileishmanial activity against Leishmania donovani AG83 promastigotes assessed as parasite growth inhibition incubated for 92 hrs by MTT assay; type: functional, organism-based; conditions: AG83, 92 h
# [2] = Cytotoxicity against human THP1 cells incubated for 92 hrs by MTT assay; type: cell-based; conditions: THP-1 cells
# [3] = (§1) Selectivity index, ratio of CC50 for human THP1 cells to IC50 for Leishmania donovani amastigotes infected in human THP1 cells; type: functional, THP-1
# THP-1 [4] = assay: Induction of nitric oxide production in human THP1 cells infected with Leishmania donovani amastigotes at 0.93 uM incubated for 48 hrs by Griess assay relative to untreated control; type: functional
# THP-1 [5] = assay: Induction of iNOS2 mRNA expression in human THP1 cells infected with Leishmania donovani amastigotes at 0.93 uM incubated for 5 hrs by RT-PCR method; type: functional, cell-based
# Leishmania donovani [6] = assay: Antileishmanial activity against Leishmania donovani amastigotes infected in human THP1 cells assessed as parasite growth inhibition at 100 uM incubated for 48 hrs by Giemsa staining based optical microscopy; type: functional; conditions: THP-1, 48 h, read-out: GI
# Leishmania donovani [7] = assay: microbe, parasite or virus in culture; conditions: THP-1, 48 h
# Description: Antileishmanial activity against Leishmania donovani amastigotes infected in human THP1 cells at 10 to 210 uM incubated for 48 hrs by Giemsa staining based optical microscopy
# Leishmania donovani [8] = assay: Antileishmanial activity against Leishmania donovani; type: functional, organism-based
# THP-1 [9] = assay: as §1; type: functional
# THP-1 [10] = assay: Induction of nitric oxide production in human THP1 cells infected with Leishmania donovani amastigotes at 32.3 uM incubated for 48 hrs by Griess assay relative to untreated control; type: functional, cell-based
compound,measurement,setting,value
COc1cc(O)c2c(=O)c(OC)c(-c3cc(O)c(O)c(OC)c3)oc2c1,IC50,Leishmania donovani [1],2.4 µM
same,IC90,Leishmania donovani [1],28.1 µM
same,CC50 at 92 h,[2],124 µM
same,Ratio CC50/IC50,[3],133.01
same,fold change (FC),THP-1 [4],8.4
same,Activity,THP-1 [5],Active
same,inhibition of growth at 100 µM,Leishmania donovani [6],100%
same,IC50,Leishmania donovani [7],0.93 µM
COc1cc(-c2oc3cc(O)cc(O)c3c(=O)c2O)cc(OC)c1OC,IC50,Leishmania donovani [8],> 30 µg/mL
sodium antimonygluconate,Ratio CC50/IC50,THP-1 [9],10.1
same,Activity,THP-1 [10],inactive
